Source: the supplement of paper PMC6045584
± gives the standard deviation of the averaged measurements.

How the values were obtained:
[1] = compound: C=CCNC1=C2C[C@@H](C)C[C@H](OC)[C@H](O)[C@@H](C)/C=C(\C)[C@H](OC(N)=O)[C@@H](OC)/C=C\C=C(/C)C(=O)NC(=CC1=O)C2=O [17-AAG]; experiment: surviving fraction relative to DMSO-only wells; higher = less growth inhibition; settings: exposure time: 5 days
In short: (§1)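 Log-phase tumour cells were seeded at 250–500 per well in 384-well plates and, from 24 hours after seeding, exposed continuously for five days to inhibitors at 0.5, 1, 5, 10, 50, 100, 500 and 1000 nM. Surviving fraction is CellTiter-Glo luminescence normalised to the median of DMSO-only wells. Luminescence was measured after 10 minutes at room temperature, and only lines screened three times with replicate Pearson r >0.7 and median Z' >0.3 were kept.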

[2] = compound: CN1CC[C@H](c2c(O)cc(O)c3c(=O)cc(-c4ccccc4Cl)oc23)[C@H](O)C1 [FLAVOPIRIDOL]; experiment: as above; settings: exposure time: 5 days
In short: as §1

Test System | surviving fraction ([1]; 0.5 nM) | surviving fraction ([1]; 1 nM) | surviving fraction ([1]; 5 nM) | surviving fraction ([1]; 10 nM) | surviving fraction ([1]; 50 nM) | surviving fraction ([1]; 100 nM) | surviving fraction ([1]; 500 nM) | surviving fraction ([1]; 1000 nM) | surviving fraction ([2]; 0.5 nM) | surviving fraction ([2]; 1 nM) | surviving fraction ([2]; 5 nM) | surviving fraction ([2]; 10 nM) | surviving fraction ([2]; 50 nM) | surviving fraction ([2]; 100 nM) | surviving fraction ([2]; 500 nM) | surviving fraction ([2]; 1000 nM)
HCC1395 BREAST | 0.823 ± 0.02 | 0.862 ± 0.035 | 0.957 ± 0.12 | 0.93 ± 0.067 | 1.21 ± 0.12 | 1.13 ± 0.18 | 0.899 ± 0.15 | 0.803 ± 0.1 | 1 ± 0.21 | 1.13 ± 0.062 | 1.2 ± 0.097 | 1.311 ± 0.006 | 1.3 ± 0.16 | 0.992 ± 0.14 | 0.51 ± 0.36 | 0.419 ± 0.19
HCC1806 BREAST | 0.78 ± 0.076 | 0.783 ± 0.065 | 0.571 ± 0.12 | 0.123 ± 0.056 | 0.0273 ± 0.0015 | 0.0247 ± 0.0015 | 0.023 ± 0.001 | 0.0243 ± 0.0015 | 0.833 ± 0.14 | 0.959 ± 0.059 | 1.03 ± 0.08 | 1.06 ± 0.062 | 0.586 ± 0.038 | 0.093 ± 0.0078 | 0.0207 ± 0.00058 | 0.0217 ± 0.00058
HCC1954 BREAST | 0.387 ± 0.00071 | 0.292 ± 0.071 | 0.195 ± 0.011 | 0.131 ± 0.03 | 0.0668 ± 0.012 | 0.0498 ± 0.0053 | 0.0425 ± 0.0042 | 0.045 ± 0.0064 | 1.16 ± 0.0025 | 1.12 ± 0.063 | 1.49 ± 0.18 | 1.12 ± 0.23 | 0.361 ± 0.1 | 0.0465 ± 0.0057 | 0.0345 ± 0.0014 | 0.0318 ± 0.0039
HCT15 LARGE INTESTINE | 0.858 ± 0.04 | 0.852 ± 0.011 | 0.864 ± 0.029 | 0.792 ± 0.078 | 0.479 ± 0.0076 | 0.264 ± 0.0079 | 0.072 ± 0.0027 | 0.0573 ± 0.0025 | 1.06 ± 0.085 | 0.963 ± 0.12 | 0.991 ± 0.13 | 0.92 ± 0.12 | 0.45 ± 0.035 | 0.103 ± 0.013 | 0.0417 ± 0.0025 | 0.0417 ± 0.0015
HELA CERVIX | 0.944 ± 0.039 | 0.921 ± 0.037 | 0.924 ± 0.045 | 0.906 ± 0.043 | 0.68 ± 0.092 | 0.482 ± 0.038 | 0.219 ± 0.015 | 0.0948 ± 0.0088 | 0.987 ± 0.041 | 0.962 ± 0.045 | 1.03 ± 0.086 | 0.936 ± 0.018 | 1.16 ± 0.053 | 0.691 ± 0.027 | 0.0347 ± 0.001 | 0.0268 ± 0.00029
HOS BONE | 0.924 ± 0.029 | 0.932 ± 0.037 | 0.934 ± 0.027 | 0.93 ± 0.017 | 0.914 ± 0.024 | 0.442 ± 0.11 | 0.0503 ± 0.0011 | 0.0427 ± 0.0032 | 1.02 ± 0.018 | 1.03 ± 0.011 | 1.034 ± 0.01 | 1.04 ± 0.019 | 0.9813 ± 0.0095 | 0.352 ± 0.02 | 0.0367 ± 0.0072 | 0.035 ± 0.003
HOSMNG BONE | 0.981 ± 0.039 | 0.977 ± 0.072 | 0.972 ± 0.051 | 0.978 ± 0.068 | 1.08 ± 0.028 | 0.506 ± 0.014 | 0.14 ± 0.014 | 0.11 ± 0.0031 | 0.977 ± 0.05 | 0.991 ± 0.049 | 1 ± 0.011 | 0.981 ± 0.024 | 1.01 ± 0.079 | 0.498 ± 0.021 | 0.059 ± 0.007 | 0.0577 ± 0.0065
HSSYII SYNOVIAL | 0.869 ± 0.049 | 0.812 ± 0.035 | 0.888 ± 0.045 | 0.868 ± 0.022 | 0.764 ± 0.039 | 0.519 ± 0.017 | 0.122 ± 0.0035 | 0.114 ± 0.0093 | 0.999 ± 0.021 | 0.993 ± 0.025 | 1.01 ± 0.083 | 0.907 ± 0.037 | 0.564 ± 0.034 | 0.145 ± 0.017 | 0.0215 ± 0.0005 | 0.0212 ± 0.00058
HT1080 SOFT TISSUE | 0.969 ± 0.031 | 1 ± 0.061 | 1.08 ± 0.015 | 1.048 ± 0.01 | 0.389 ± 0.017 | 0.204 ± 0.028 | 0.148 ± 0.0085 | 0.146 ± 0.0015 | 1.05 ± 0.027 | 1.05 ± 0.02 | 1.03 ± 0.029 | 1.016 ± 0.0044 | 0.4973 ± 0.0011 | 0.193 ± 0.024 | 0.061 ± 0.003 | 0.0633 ± 0.0021
HU09 BONE | 0.918 ± 0.045 | 0.935 ± 0.14 | 0.542 ± 0.025 | 0.131 ± 0.038 | 0.0283 ± 0.00058 | 0.0237 ± 0.0031 | 0.0233 ± 0.0029 | 0.0233 ± 0.0038 | 1.06 ± 0.12 | 1.08 ± 0.037 | 1.22 ± 0.14 | 1.08 ± 0.082 | 0.638 ± 0.051 | 0.0337 ± 0.0032 | 0.024 | 0.025 ± 0.0017
HUO3N1 BONE | 0.881 ± 0.025 | 0.888 ± 0.042 | 0.97 ± 0.022 | 0.872 ± 0.046 | 0.591 ± 0.046 | 0.443 ± 0.025 | 0.359 ± 0.026 | 0.316 ± 0.036 | 1.07 ± 0.016 | 1 ± 0.022 | 1.14 ± 0.033 | 1.12 ± 0.03 | 1.26 ± 0.052 | 0.929 ± 0.077 | 0.0483 ± 0.0011 | 0.039 ± 0.0061
JIMT1 BREAST | 0.833 ± 0.034 | 0.823 ± 0.062 | 0.84 ± 0.046 | 0.754 ± 0.1 | 0.0973 ± 0.016 | 0.0685 ± 0.0066 | 0.062 ± 0.0026 | 0.0647 ± 0.0033 | 1 ± 0.012 | 1.01 ± 0.033 | 1.05 ± 0.047 | 1.02 ± 0.035 | 0.809 ± 0.019 | 0.2 ± 0.029 | 0.0467 ± 0.0053 | 0.0375 ± 0.0027
JURKAT HAEMATOPOIETIC AND LYMPHOID TISSUE | 1.02 ± 0.014 | 0.997 ± 0.037 | 1 ± 0.023 | 0.998 ± 0.014 | 0.951 ± 0.032 | 0.886 ± 0.021 | 0.132 ± 0.0082 | 0.0577 ± 0.0015 | 1.04 ± 0.018 | 1.07 ± 0.046 | 1.05 ± 0.026 | 1.04 ± 0.042 | 0.708 ± 0.022 | 0.119 ± 0.0035 | 0.031 ± 0.001 | 0.0303 ± 0.0011
KPD BONE | 0.907 ± 0.085 | 0.894 ± 0.05 | 0.913 ± 0.01 | 0.828 ± 0.084 | 0.246 ± 0.018 | 0.111 ± 0.011 | 0.0627 ± 0.0015 | 0.0607 ± 0.0045 | 0.881 ± 0.31 | 1.01 ± 0.074 | 1.08 ± 0.048 | 0.997 ± 0.03 | 0.525 ± 0.035 | 0.101 ± 0.015 | 0.031 ± 0.0017 | 0.0277 ± 0.006
LM7 BONE | 0.755 ± 0.098 | 0.728 ± 0.03 | 0.763 ± 0.026 | 0.722 ± 0.01 | 0.188 ± 0.0075 | 0.121 ± 0.0085 | 0.0937 ± 0.0021 | 0.0923 ± 0.0068 | 1.06 ± 0.022 | 1.08 ± 0.096 | 1.15 ± 0.11 | 1.1 ± 0.091 | 0.824 ± 0.031 | 0.446 ± 0.016 | 0.0593 ± 0.0038 | 0.0543 ± 0.0029
LNCAP PROSTATE | 1.15 ± 0.1 | 1.14 ± 0.025 | 0.769 ± 0.12 | 0.359 ± 0.028 | 0.114 ± 0.009 | 0.0687 ± 0.012 | 0.0517 ± 0.0021 | 0.0523 ± 0.0064 | 0.884 ± 0.014 | 0.917 ± 0.0082 | 0.849 ± 0.038 | 0.84 ± 0.015 | 0.409 ± 0.071 | 0.028 ± 0.0036 | 0.043 ± 0.0027 | 0.0397 ± 0.0011
MCF7 BREAST | 0.842 ± 0.015 | 0.817 ± 0.027 | 0.811 ± 0.021 | 0.777 ± 0.058 | 0.429 ± 0.0029 | 0.329 ± 0.0083 | 0.271 ± 0.015 | 0.275 ± 0.012 | 0.982 ± 0.083 | 0.973 ± 0.031 | 0.979 ± 0.032 | 0.865 ± 0.031 | 0.816 ± 0.038 | 0.167 ± 0.011 | 0.163 ± 0.024 | 0.157 ± 0.0056
MDAMB134 BREAST | 0.609 ± 0.036 | 0.648 ± 0.053 | 0.573 ± 0.066 | 0.667 ± 0.051 | 0.574 ± 0.018 | 0.519 ± 0.011 | 0.524 ± 0.012 | 0.47 ± 0.018 | 1 ± 0.019 | 0.991 ± 0.041 | 1.09 ± 0.037 | 1.13 ± 0.088 | 1.52 ± 0.23 | 0.977 ± 0.15 | 0.303 ± 0.016 | 0.2765 ± 0.0021
MDAMB157 BREAST | 0.897 ± 0.082 | 0.854 ± 0.053 | 0.848 ± 0.18 | 0.482 ± 0.098 | 0.233 ± 0.018 | 0.214 ± 0.038 | 0.163 ± 0.024 | 0.147 ± 0.008 | 0.999 ± 0.025 | 0.921 ± 0.096 | 0.986 ± 0.073 | 0.927 ± 0.018 | 0.769 ± 0.022 | 0.3 ± 0.027 | 0.0433 ± 0.016 | 0.0383 ± 0.0076
MDAMB231 BREAST | 0.95 ± 0.019 | 0.943 ± 0.03 | 0.994 ± 0.033 | 1.01 ± 0.022 | 0.534 ± 0.019 | 0.263 ± 0.0075 | 0.103 ± 0.0031 | 0.0973 ± 0.0038 | 0.99 ± 0.022 | 0.9902 ± 0.0098 | 1.02 ± 0.042 | 0.995 ± 0.039 | 0.833 ± 0.018 | 0.372 ± 0.028 | 0.0403 ± 0.0017 | 0.0366 ± 0.0017
MDAMB361 BREAST | 0.765 ± 0.078 | 0.728 ± 0.036 | 0.454 ± 0.036 | 0.332 ± 0.047 | 0.278 ± 0.023 | 0.267 ± 0.015 | 0.324 ± 0.014 | 0.313 ± 0.038 | 0.919 ± 0.18 | 0.814 ± 0.066 | 0.841 ± 0.05 | 0.861 ± 0.13 | 0.937 ± 0.13 | 0.719 ± 0.039 | 0.223 ± 0.021 | 0.229 ± 0.022
